From patent US20180325151A1, “METHOD OF PRODUCING INSTANT GINSENG CHICKEN SOUP PRODUCT” (HARIM CORPORATION, priority 2017, published 2018)

Legend:
colon bacteria = test: Microorganism growth inhibition: number of colon bacteria on Chromocult medium; assay type: cell-based; details: time 24 (hours); stored at 25° C.; ND = Not observed
Description: (§1) A chicken in instant ginseng chicken soup (product of Harim) was boiled, washed twice with cold water, and then dehydrated for 1 minute. 10 g of boiled instant ginseng chicken soup was dipped in 100 ml of solution for 30 seconds, dehydrated for 30 seconds on a strainer, held in a petri dish, and then stored at 25° C. For counting the total number of bacteria, the number of colonies resulting from culturing for 48 hours at 37° C. using a plate count agar was counted and indicated with colony forming unit (CFU)/ml. For counting the number of colon bacteria, the experiment was conducted in the same way for counting the total number of bacteria using a Chromocult (merck) medium. In this case, distilled water as a control group and (F)rhodinic acid were used.

total number of bacteria = test: Microorganism growth inhibition: total number of bacteria on plate count agar; assay type: cell-based; details: boiled soup chicken dipped 30 seconds in solution, stored at 25° C.
Description: as §1

CC(C)=CCCC(C)CC(=O)O (centres unmarked) [F (rhodinic acid), rhodinic acid]
Number of colon bacteria (colon bacteria): no colon bacteria were detected
Total number of bacteria (total number of bacteria; time 0): 6.7 × 10^2 CFU/ml
Total number of bacteria (total number of bacteria; time 18): 10 × 10^5 CFU/ml
Total number of bacteria (total number of bacteria; time 24 (hours)): 8.9 × 10^6 CFU/ml
Total number of bacteria (total number of bacteria; time 24 (hours), listed as (F)rhodinic acid): up to 10^6 CFU/ml
